We go through twelve molecules from ChEMBL document CHEMBL1201862, “PubChem BioAssay data set” (2004).

Some test systems named below: CAKI-1; HCT-116; HOP-62; HOP-92; HT-29; KM12; NCI-H23; OVCAR-3; OVCAR-8; SF-539; SK-MEL-28; SK-OV-3; SNB-19; SNB-75; TK-10; UACC-257; Hs-578T; MCF7.
Holding throughout (test): inhibition of tumour cell growth, NCI panel, 48 h

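Tested at 5 concentrations; 48 h exposure; 96-well plates; endpoints linearly interpolated, else capped at highest concentration. GI50 marks 50% less growth.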 Calls of active or inactive are those of the source. Cut-off read from the data, not from the text of the source: active = GI50 up to about 1.1 µM and inactive = higher. Some results are limits rather than exact numbers.

Consider `Cc1cc(N(CCC#N)CCC#N)ccc1/C=C(\N=[N+]=[N-])C(=O)NC(=O)COc1ccccc1`, for which the GI50 in the assay with CAKI-1, in the assay on HCT-116, in the assay with HOP-62, with HOP-92, in the assay on HT-29 and with KM12 was > 100 µM (inactive) in each case. The GI50 in the assay on NCI-H23 was > 100 µM (inactive); in the assay on OVCAR-3, > 100 µM (inactive); in the assay on OVCAR-8, > 81.1 µM (inactive); in the assay with SF-539, > 67.1 µM (inactive); in the assay with SK-MEL-28, > 100 µM (inactive); in the assay with SK-OV-3, > 100 µM (inactive). The GI50 with SNB-19 is > 76.6 µM (inactive); with SNB-75, > 44 µM (inactive); in the assay with TK-10, > 100 µM (inactive); with UACC-257, > 100 µM (inactive).

For `O=C(NC1CCCCC1)c1c(O)[nH]c(=S)[nH]c1=O`, the GI50 is > 100 µM (inactive) in the assay on CAKI-1; > 100 µM (inactive) in the assay on HCT-116; > 100 µM (inactive) in the assay with HOP-62; 96.8 µM (inactive) with HOP-92; > 100 µM (inactive) in the assay with HT-29; > 100 µM (inactive) in the assay on KM12. For the same molecule, the GI50 was > 100 µM (inactive) in the assay on NCI-H23; > 100 µM (inactive) in the assay with OVCAR-3; 89.7 µM (inactive) in the assay with OVCAR-8; > 100 µM (inactive) in the assay on SF-539; > 100 µM (inactive) with SK-MEL-28; > 100 µM (inactive) with SK-OV-3. Also, the GI50 in the assay on SNB-19, with SNB-75, with TK-10 and in the assay on UACC-257 was > 100 µM (inactive) in each case.

For the molecule `O=C1NC2(CCCCC2)C2CCCCC=C12` (stereo not drawn), the GI50 in the assay with CAKI-1, in the assay with HCT-116, with HOP-62, with HOP-92, with HT-29 and in the assay on KM12 was > 100 µM (inactive) each time. The GI50 with NCI-H23, in the assay with OVCAR-3, in the assay on OVCAR-8, with SF-539, in the assay on SK-MEL-28 and in the assay with SK-OV-3 was > 100 µM (inactive) each time. Besides, the GI50 with SNB-19, in the assay on SNB-75, in the assay on TK-10 and in the assay on UACC-257 was > 100 µM (inactive) in each case.

For `CCOC(=O)C(=O)Nc1c(C)cccc1C(C)(C)C`, the GI50 in the assay on CAKI-1, in the assay with HCT-116, in the assay on HOP-62, in the assay on HOP-92, in the assay with HT-29 and in the assay with KM12 was > 100 µM (inactive) each time. Also, the GI50 with NCI-H23, with OVCAR-3, in the assay on OVCAR-8, with SF-539, with SK-MEL-28 and with SK-OV-3 was > 100 µM (inactive) throughout. The GI50 with SNB-19 was > 100 µM (inactive); in the assay with SNB-75, 49.1 µM (inactive); in the assay on TK-10, > 100 µM (inactive); with UACC-257, > 100 µM (inactive).

With `Cc1ccc(NC(=O)C(=O)C(C(=O)c2ccc3ccccc3c2)C2OC(=O)c3ccccc32)c(C)c1` (stereo not drawn), the GI50 with CAKI-1 was 6.68 µM (inactive); in the assay on HCT-116, 6.35 µM (inactive); in the assay with HOP-62 it was 6.12 µM (inactive); in the assay on HOP-92, 7.03 µM (inactive); with HT-29, 25.7 µM (inactive); with KM12 it was 16.4 µM (inactive). Further, the GI50 in the assay with NCI-H23 was 8.13 µM (inactive); in the assay with OVCAR-3 it was 9.38 µM (inactive); in the assay on OVCAR-8, 7.67 µM (inactive); with SF-539, 4.84 µM (inactive); in the assay on SK-MEL-28, 5.69 µM (inactive); with SK-OV-3, 12.5 µM (inactive). The GI50 is 4.37 µM (inactive) with SNB-19, 9.14 µM (inactive) in the assay on SNB-75, 20.3 µM (inactive) in the assay on TK-10 and 12.8 µM (inactive) in the assay on UACC-257.

As to `COc1cccc(/C=N\NC(=O)C(C)SC(C)C(=O)N/N=C/c2cccc(OC)c2)c1` (stereo not drawn), the GI50 in the assay on CAKI-1 was 34.3 µM (inactive); with HCT-116, 18.4 µM (inactive); in the assay on HOP-62, 16 µM (inactive); in the assay on HOP-92, 20.8 µM (inactive); in the assay on HT-29, > 66.8 µM (inactive); in the assay with KM12 it was 31.5 µM (inactive). Also, the GI50 in the assay with NCI-H23 was 23.8 µM (inactive); in the assay on OVCAR-3 it was 20.7 µM (inactive); in the assay on OVCAR-8 it was 28.4 µM (inactive); with SF-539, > 89.1 µM (inactive); with SK-MEL-28, 36.6 µM (inactive); in the assay on SK-OV-3 it was 18.1 µM (inactive). Further, the GI50 was 20.8 µM (inactive) with SNB-19, 16.9 µM (inactive) in the assay on SNB-75, 19.1 µM (inactive) in the assay with TK-10 and 59.3 µM (inactive) with UACC-257.

Consider `c1ccc(/N=C(\N2CCCC2)N(CCN2CCCC2)c2ccccc2)cc1`, for which the GI50 in the assay with CAKI-1 is 53.5 µM (inactive); in the assay with HCT-116, 1.83 µM (inactive); in the assay on HOP-62, 9.79 µM (inactive); with HOP-92, 22.6 µM (inactive); in the assay on HT-29 it was 1.84 µM (inactive); in the assay on Hs-578T it was 18.9 µM (inactive). In addition, the GI50 is 11 µM (inactive) in the assay with KM12; 13.5 µM (inactive) with MCF7; 11.1 µM (inactive) in the assay on NCI-H23; 20 µM (inactive) in the assay with OVCAR-3; 24.4 µM (inactive) with OVCAR-8; > 100 µM (inactive) in the assay with SK-MEL-28. The GI50 in the assay with SK-OV-3 is 63.4 µM (inactive); in the assay on SNB-19, > 100 µM (inactive); in the assay on SNB-75, 14.4 µM (inactive); in the assay with TK-10, 30.8 µM (inactive); in the assay on UACC-257, 21 µM (inactive).

On to `N=C(N)N/N=C/c1oc(-c2ccc(S(=O)(=O)O)o2)c(-c2ccc(S(=O)(=O)O)o2)c1[N+](=O)[O-]`, for which the GI50 with CAKI-1, with HCT-116, in the assay with HOP-62, in the assay on HOP-92, in the assay on HT-29 and in the assay on KM12 was > 100 µM (inactive) in each case. The GI50 in the assay on NCI-H23, in the assay on OVCAR-3, in the assay on OVCAR-8, with SF-539, in the assay on SK-MEL-28 and with SK-OV-3 was > 100 µM (inactive) each time. Moreover, the GI50 with SNB-19, in the assay with SNB-75, with TK-10 and in the assay with UACC-257 was > 100 µM (inactive) throughout.

Regarding `COC(=O)/C=C(/C(=O)OC)C1(C)c2cc(C(=O)OC)c(C(=O)OC)c(N)c2C(=N)N1c1ccccc1` (stereo not drawn), the GI50 is 21.4 µM (inactive) in the assay with CAKI-1; 15.8 µM (inactive) in the assay on HCT-116; 86.7 µM (inactive) in the assay with HOP-62; 10.4 µM (inactive) in the assay with HOP-92; 16.7 µM (inactive) with HT-29; 17.2 µM (inactive) in the assay on KM12. Besides, the GI50 with NCI-H23 is 22.1 µM (inactive); in the assay with OVCAR-3, 17.9 µM (inactive); in the assay with OVCAR-8, 17.4 µM (inactive); with SF-539, 22.2 µM (inactive); with SK-MEL-28, 18.1 µM (inactive); in the assay with SK-OV-3, 34 µM (inactive). Further, the GI50 is 49 µM (inactive) in the assay with SNB-19, 29.4 µM (inactive) in the assay on SNB-75, 41.4 µM (inactive) with TK-10 and > 10 µM (inactive) with UACC-257.

For the molecule `CCOC(=O)c1ccc(N[C@@H]2c3cc4c(cc3C(C3=CC(=O)C(=O)C(OC)=C3)[C@H]3C(=O)OCC32)OCO4)cc1` (stereo partly drawn), the GI50 in the assay on CAKI-1 is 0.634 µM (active); with HCT-116, 2.86 µM (inactive); in the assay with HOP-62 it was 0.512 µM (active); in the assay with HOP-92, 2.04 µM (inactive); with HT-29, 4.49 µM (inactive); in the assay with KM12 it was 3.92 µM (inactive). Moreover, the GI50 in the assay with NCI-H23 is 1.54 µM (inactive); in the assay with OVCAR-3 it was 8.47 µM (inactive); in the assay on OVCAR-8, 2.86 µM (inactive); in the assay with SF-539 it was 1.29 µM (inactive); with SK-MEL-28 it was 7.6 µM (inactive); in the assay with SK-OV-3, 2.26 µM (inactive). Besides, the GI50 in the assay with SNB-19 was 2.49 µM (inactive); in the assay on SNB-75, 1.58 µM (inactive); in the assay on TK-10, 9.84 µM (inactive); in the assay with UACC-257, 9.08 µM (inactive).

On to `CC(C)(C)OC(=O)NC1CCC[C@H]1O` (stereo partly drawn), for which the GI50 with CAKI-1, in the assay on HCT-116, with HOP-62, with HOP-92, in the assay on HT-29 and with KM12 was > 100 µM (inactive) in each case. The GI50 with NCI-H23, in the assay on OVCAR-3, in the assay on OVCAR-8, in the assay with SF-539, in the assay on SK-MEL-28 and with SK-OV-3 was > 100 µM (inactive) throughout. Further, the GI50 in the assay on SNB-19 was > 100 µM (inactive); in the assay with SNB-75, 47.3 µM (inactive); in the assay on TK-10, > 100 µM (inactive); in the assay on UACC-257 it was > 100 µM (inactive).

As to `O=Cc1c(O)c(C(=O)Nc2ccc3[nH]c(=O)[nH]c3c2)cc2ccccc12`, the GI50 with CAKI-1, in the assay on HCT-116, in the assay with HOP-62, with HOP-92, in the assay with HT-29 and in the assay with KM12 was > 100 µM (inactive) in each case. The GI50 in the assay on NCI-H23, in the assay on OVCAR-3, in the assay with OVCAR-8, in the assay with SF-539, with SK-MEL-28 and in the assay with SK-OV-3 was > 100 µM (inactive) in each case. Also, the GI50 in the assay on SNB-19, in the assay on SNB-75, in the assay with TK-10 and in the assay with UACC-257 was > 100 µM (inactive) in each case.
